Data on 13 compounds can be found in patent US8003660B2, “Modulators of muscarinic receptors” (Vertex Pharmaceuticals Incorporated, priority 2006, dated 2011).

Holding throughout (type): cell-based
The target in one test is T1, M2 muscarinic receptor (Homo sapiens, UniProt P08172).
T1 construct: expressed in transfected cells; host or cells: CHO (M2-CHO)
T1 sequence (P08172 1-466): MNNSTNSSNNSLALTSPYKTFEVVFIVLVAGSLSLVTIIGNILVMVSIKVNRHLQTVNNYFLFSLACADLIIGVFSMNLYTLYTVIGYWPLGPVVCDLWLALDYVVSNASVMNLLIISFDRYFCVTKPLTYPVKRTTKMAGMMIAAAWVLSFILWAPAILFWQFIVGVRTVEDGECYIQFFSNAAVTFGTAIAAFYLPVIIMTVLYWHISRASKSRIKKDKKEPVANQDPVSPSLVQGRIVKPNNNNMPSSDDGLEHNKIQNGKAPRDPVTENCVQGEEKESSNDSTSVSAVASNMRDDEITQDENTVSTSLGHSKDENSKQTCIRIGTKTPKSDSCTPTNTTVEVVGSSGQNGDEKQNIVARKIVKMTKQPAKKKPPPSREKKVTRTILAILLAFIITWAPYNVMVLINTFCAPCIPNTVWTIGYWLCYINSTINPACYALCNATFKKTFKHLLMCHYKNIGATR
Put plainly: Functional mobilization of intracellular calcium (FLIPR) in CHO cells expressing M2. The conditions noted are these: for M2 Activity: CHO cells expressing M2, FLIPR calcium assay; for Emax: CHO, 100% efficacy = maximum response obtained with the Carbachol control. The method in brief:
(§1)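 Recombinant CHO cells loaded with Fluo-3 AM or Calcium 3 dye in pH 7.4 buffer containing 1 mM probenecid, with 0.5% final DMSO. For agonism, compound is added directly. For inhibition, it is preincubated 15 min, or co-applied, before carbachol at EC80. FLIPR fluorescence (ex 488, em 540 nm) is recorded for 60 s.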

In a further test the target is T2, M4 muscarinic receptor (Homo sapiens, UniProt P08173).
T2 construct: expressed in transfected cells; host or cells: CHO (M4-CHO)
T2 sequence (P08173 1-479): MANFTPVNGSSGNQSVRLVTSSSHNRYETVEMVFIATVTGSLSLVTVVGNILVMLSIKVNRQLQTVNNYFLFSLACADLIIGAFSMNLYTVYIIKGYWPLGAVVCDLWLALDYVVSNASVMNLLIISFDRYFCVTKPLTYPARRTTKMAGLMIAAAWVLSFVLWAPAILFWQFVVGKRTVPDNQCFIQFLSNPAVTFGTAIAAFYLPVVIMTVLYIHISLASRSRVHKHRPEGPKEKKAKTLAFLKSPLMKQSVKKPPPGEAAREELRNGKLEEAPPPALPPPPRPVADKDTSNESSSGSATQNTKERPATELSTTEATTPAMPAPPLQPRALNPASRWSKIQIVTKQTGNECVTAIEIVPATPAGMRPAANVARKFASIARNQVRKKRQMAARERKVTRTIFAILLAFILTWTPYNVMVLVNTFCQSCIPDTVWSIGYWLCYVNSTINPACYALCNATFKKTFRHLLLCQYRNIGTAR
The test can be described thus: Functional mobilization of intracellular calcium (FLIPR) in CHO cells expressing M4. The note with it: for M4 Activity: CHO cells expressing M4, FLIPR calcium assay; for Emax: CHO, 100% efficacy = maximum response obtained with the Carbachol control. In outline: as §1
A general note: A change in cytosolic calcium serves as a functional read-out for many receptors and channels.

The next test addresses T3, M3 muscarinic receptor (Homo sapiens, UniProt P20309).
T3 construct: expressed in transfected cells; host or cells: CHO (M3-CHO)
The test can be described thus: Functional mobilization of intracellular calcium (FLIPR) in CHO cells expressing M3. The note with it: for M3 Activity: CHO cells expressing M3, FLIPR calcium assay; for Emax: CHO, 100% efficacy = maximum response obtained with the Carbachol control. In outline:
as §1

A further test deals with T4, M1 muscarinic receptor (Homo sapiens, UniProt P11229).
T4 construct: expressed in transfected cells; host or cells: CHO (M1-CHO)
T4 sequence (P11229 1-460): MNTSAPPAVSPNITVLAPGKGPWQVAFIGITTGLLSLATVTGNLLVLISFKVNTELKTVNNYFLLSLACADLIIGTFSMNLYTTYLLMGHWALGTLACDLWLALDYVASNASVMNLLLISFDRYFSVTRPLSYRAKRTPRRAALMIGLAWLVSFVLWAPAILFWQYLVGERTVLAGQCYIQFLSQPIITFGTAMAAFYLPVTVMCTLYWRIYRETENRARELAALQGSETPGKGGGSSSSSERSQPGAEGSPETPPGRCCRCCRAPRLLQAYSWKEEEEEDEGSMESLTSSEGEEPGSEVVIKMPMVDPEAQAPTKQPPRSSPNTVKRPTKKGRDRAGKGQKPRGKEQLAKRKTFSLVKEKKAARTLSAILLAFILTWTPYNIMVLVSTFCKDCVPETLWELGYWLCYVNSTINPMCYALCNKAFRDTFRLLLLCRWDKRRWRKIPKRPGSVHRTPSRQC
The test can be described thus: Functional mobilization of intracellular calcium (FLIPR) in CHO cells expressing M1. The note with it: for M1 Activity: CHO cells expressing M1, FLIPR calcium assay; for Emax: CHO, 100% efficacy = maximum response obtained with the Carbachol control. The method in brief: as §1

SMILES strings stand for the structures.

T3 sequence (P20309 whole entry): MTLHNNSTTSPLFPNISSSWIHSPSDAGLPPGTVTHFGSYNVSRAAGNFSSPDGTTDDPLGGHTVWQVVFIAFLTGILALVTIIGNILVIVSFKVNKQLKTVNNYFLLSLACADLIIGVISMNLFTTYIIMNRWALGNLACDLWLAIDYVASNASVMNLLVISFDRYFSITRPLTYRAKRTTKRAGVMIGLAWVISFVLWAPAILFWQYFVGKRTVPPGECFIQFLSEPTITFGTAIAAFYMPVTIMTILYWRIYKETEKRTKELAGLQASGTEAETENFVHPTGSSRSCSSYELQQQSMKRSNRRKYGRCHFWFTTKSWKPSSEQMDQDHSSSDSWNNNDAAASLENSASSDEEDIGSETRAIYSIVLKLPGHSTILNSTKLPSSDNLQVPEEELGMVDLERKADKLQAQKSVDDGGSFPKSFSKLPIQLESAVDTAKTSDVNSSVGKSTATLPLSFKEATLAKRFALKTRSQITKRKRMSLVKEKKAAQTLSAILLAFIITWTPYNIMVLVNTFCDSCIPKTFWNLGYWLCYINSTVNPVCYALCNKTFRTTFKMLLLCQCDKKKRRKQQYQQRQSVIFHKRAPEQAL

In general, Emax refers to the greatest response seen or fitted, relative to the assay's reference. `CC(C)(C)OC(=O)N1CCC2(CC1)C[C@H](NC(=O)c1ccccc1)c1ccccc12` [compound 255]: at M2 muscarinic receptor, the “M2 Activity” value is “+ (activity was measured to be greater than 5.0 μM)” and the maximal response (Emax) was less than 25%. Also, at M4 muscarinic receptor, the “M4 Activity” value was “+ (activity was measured to be greater than 5.0 μM)” and the Emax is less than 25%. In addition, at M3 muscarinic receptor, the “M3 Activity” value is “+ (activity was measured to be greater than 5.0 μM)” and the maximal effect (Emax) was less than 25%. In addition, at M1 muscarinic receptor, the “M1 Activity” value is reported as “+ (activity was measured to be greater than 5.0 μM)” and the Emax was less than 25%.
With `CC(=O)N[C@H]1CC2(CCN(CC(=O)O)CC2)c2ccccc21` [compound 256], on M2 muscarinic receptor, the “M2 Activity” value is recorded as “+ (activity was measured to be greater than 5.0 μM)” and the Emax was less than 25%. On M4 muscarinic receptor, the “M4 Activity” value was “+ (activity was measured to be greater than 5.0 μM)” and the maximal effect (Emax) is less than 25%. Besides, at M3 muscarinic receptor, the “M3 Activity” value is given as “+ (activity was measured to be greater than 5.0 μM)” and the maximum response (Emax) was less than 25%. Further, at M1 muscarinic receptor, the “M1 Activity” value is given as “+ (activity was measured to be greater than 5.0 μM)” and the Emax was less than 25%.
Turning to `COC(=O)CCCCCN1CCC2(CC1)C[C@H](NC(C)=O)c1ccccc12` [compound 257], at M2 muscarinic receptor, the “M2 Activity” value is on record as “+++ (activity was measured to be less than 2.0 μM)” and the Emax was 25 to 100%. Further, on M4 muscarinic receptor, the “M4 Activity” value is listed as “+++ (activity was measured to be less than 2.0 μM)” and the Emax lay in the range of 25 to 100%. Besides, on M3 muscarinic receptor, the “M3 Activity” value is “+ (activity was measured to be greater than 5.0 μM)” and the maximal response (Emax) lay in the range of 25 to 100%. Also, on M1 muscarinic receptor, the “M1 Activity” value is recorded as “+++ (activity was measured to be less than 2.0 μM)” and the maximal effect (Emax) was greater than 100%.
`CC(=O)N[C@H]1CC2(CCN(CC(=O)N(CC#N)C(C)C)CC2)c2ccccc21` [compound 258]: on M2 muscarinic receptor, the “M2 Activity” value is given as “+ (activity was measured to be greater than 5.0 μM)” and the maximum response (Emax) is less than 25%. Moreover, at M4 muscarinic receptor, the “M4 Activity” value is “+ (activity was measured to be greater than 5.0 μM)” and the maximal effect (Emax) is less than 25%. On M3 muscarinic receptor, the “M3 Activity” value is given as “+ (activity was measured to be greater than 5.0 μM)” and the maximal response (Emax) is less than 25%. Further, at M1 muscarinic receptor, the “M1 Activity” value is listed as “+ (activity was measured to be greater than 5.0 μM)” and the Emax is less than 25%.
Regarding `CC(C)CCN1CCC2(CC1)CC(C(=O)O)c1ccccc12` (stereo not shown) [compound 259], on M2 muscarinic receptor, the “M2 Activity” value was “+ (activity was measured to be greater than 5.0 μM)” and the Emax was less than 25%. Also, on M4 muscarinic receptor, the “M4 Activity” value is given as “+ (activity was measured to be greater than 5.0 μM)” and the Emax is less than 25%. Moreover, at M3 muscarinic receptor, the “M3 Activity” value is listed as “+ (activity was measured to be greater than 5.0 μM)” and the maximal effect (Emax) was less than 25%. On M1 muscarinic receptor, the “M1 Activity” value was “+ (activity was measured to be greater than 5.0 μM)” and the maximum response (Emax) fell in the range of 25 to 100%.
With `CC(=O)NC1CCC2(CCN(C(=O)OC(C)(C)C)CC2)c2ccccc21` (stereo not shown) [compound 260], the Emax at M2 muscarinic receptor, on M4 muscarinic receptor, on M3 muscarinic receptor and on M1 muscarinic receptor was less than 25% in each case.
Consider `CC(=O)N[C@H]1CC2(CCN(C(=O)OC(C)(C)C)CC2)c2ccc(C)cc21` [compound 261], for which, on M2 muscarinic receptor, the “M2 Activity” value is “+ (activity was measured to be greater than 5.0 μM)” and the Emax is less than 25%. On M4 muscarinic receptor, the “M4 Activity” value is “+ (activity was measured to be greater than 5.0 μM)” and the Emax was less than 25%. Moreover, at M3 muscarinic receptor, the “M3 Activity” value is recorded as “+ (activity was measured to be greater than 5.0 μM)” and the Emax was less than 25%. Also, at M1 muscarinic receptor, the “M1 Activity” value was “+ (activity was measured to be greater than 5.0 μM)” and the Emax is less than 25%.
Regarding `C#CCNC(=O)CN1CCC2(CC1)C[C@H](NC(C)=O)c1ccccc12` [compound 262], on M2 muscarinic receptor, the “M2 Activity” value is recorded as “+ (activity was measured to be greater than 5.0 μM)” and the Emax was less than 25%. In addition, at M4 muscarinic receptor, the “M4 Activity” value was “+ (activity was measured to be greater than 5.0 μM)” and the maximum response (Emax) was less than 25%. Moreover, at M3 muscarinic receptor, the “M3 Activity” value was “+ (activity was measured to be greater than 5.0 μM)” and the maximal response (Emax) was less than 25%. In addition, at M1 muscarinic receptor, the “M1 Activity” value is “+ (activity was measured to be greater than 5.0 μM)” and the maximal effect (Emax) was less than 25%.
`C=CCC(C)(C)CN1CCC2(CC1)C[C@H](NC(C)=O)c1ccccc12` [compound 263]: at M2 muscarinic receptor, the “M2 Activity” value was “+ (activity was measured to be greater than 5.0 μM)” and the maximum response (Emax) is less than 25%. Besides, at M4 muscarinic receptor, the “M4 Activity” value is “++ (activity was measured to be from 2.0 μM to 5.0 μM)” and the maximal effect (Emax) was less than 25%. At M3 muscarinic receptor, the “M3 Activity” value was “+ (activity was measured to be greater than 5.0 μM)” and the maximal effect (Emax) was less than 25%. Also, on M1 muscarinic receptor, the “M1 Activity” value was “+ (activity was measured to be greater than 5.0 μM)” and the Emax was 25 to 100%.
For `CCCC(=O)N[C@H]1CC2(CCN(CCC(C)(C)C)CC2)c2ccccc21` [compound 264], at M2 muscarinic receptor, the “M2 Activity” value is given as “+ (activity was measured to be greater than 5.0 μM)” and the Emax is less than 25%. Also, at M4 muscarinic receptor, the “M4 Activity” value is recorded as “+++ (activity was measured to be less than 2.0 μM)” and the Emax lay within 25 to 100%. At M3 muscarinic receptor, the “M3 Activity” value is reported as “+ (activity was measured to be greater than 5.0 μM)” and the Emax was less than 25%. In addition, on M1 muscarinic receptor, the “M1 Activity” value is given as “+ (activity was measured to be greater than 5.0 μM)” and the Emax is less than 25%.
For `CC(C)CCN1CCC2(CC1)C[C@H](NC(=O)c1ccoc1)c1ccccc12` [compound 267], at M2 muscarinic receptor, the “M2 Activity” value is given as “+ (activity was measured to be greater than 5.0 μM)” and the Emax was less than 25%. In addition, at M4 muscarinic receptor, the “M4 Activity” value is “+ (activity was measured to be greater than 5.0 μM)” and the maximum response (Emax) was less than 25%. In addition, at M3 muscarinic receptor, the “M3 Activity” value is “+ (activity was measured to be greater than 5.0 μM)” and the Emax was less than 25%. Further, on M1 muscarinic receptor, the “M1 Activity” value was “+ (activity was measured to be greater than 5.0 μM)” and the maximal effect (Emax) was less than 25%.
As for `CCC(CC)(CCC#N)CN1CCC2(CC1)C[C@H](NC(C)=O)c1ccccc12` [compound 269], on M2 muscarinic receptor, the “M2 Activity” value is given as “+ (activity was measured to be greater than 5.0 μM)” and the Emax was less than 25%. At M4 muscarinic receptor, the “M4 Activity” value is recorded as “++ (activity was measured to be from 2.0 μM to 5.0 μM)” and the Emax lay in the range of 25 to 100%. For the same compound, at M3 muscarinic receptor, the “M3 Activity” value is “+ (activity was measured to be greater than 5.0 μM)” and the Emax is less than 25%. In addition, on M1 muscarinic receptor, the “M1 Activity” value is given as “+ (activity was measured to be greater than 5.0 μM)” and the Emax was 25 to 100%.
For the compound `CCC(=O)N[C@H]1CC2(CCN(C(=O)OC(C)(C)C)CC2)c2ccccc21` [compound 271], at M2 muscarinic receptor, the “M2 Activity” value was “+ (activity was measured to be greater than 5.0 μM)” and the Emax is less than 25%. On M4 muscarinic receptor, the “M4 Activity” value is “+ (activity was measured to be greater than 5.0 μM)” and the Emax is less than 25%. Moreover, on M3 muscarinic receptor, the “M3 Activity” value was “+ (activity was measured to be greater than 5.0 μM)” and the Emax was less than 25%. Further, on M1 muscarinic receptor, the “M1 Activity” value is reported as “+ (activity was measured to be greater than 5.0 μM)” and the maximal response (Emax) is less than 25%.
